Source: ChEMBL document CHEMBL4725475, “Discovery of Potent and Selective 7-Azaindole Isoindolinone-Based PI3Kγ Inhibitors” (ACS Med Chem Lett, 2020)

Columns and labels:
[1] = molecular target: T1, Phosphatidylinositol 4,5-bisphosphate 3-kinase catalytic subunit gamma isoform (Homo sapiens, UniProt P48736); experiment: Inhibition of PI3K p120gamma (unknown origin) using phosphatidylinositol 4,5-bisphosphate as substrate in presence of ATP incubated for 60 mins by ADP-Glo assay
Homo sapiens [2] = organism: Homo sapiens; experiment: Selectivity index, ratio of inhibition for PI3Kalpha (unknown origin) to inhibition for PI3K p120 gamma (unknown origin) using phosphatidylinositol 4,5-bisphosphate as substrate in presence of ATP incubated for 60 mins by ADP-Glo assay
Homo sapiens [3] = organism: Homo sapiens; experiment: Selectivity index, ratio of inhibition for PI3Kdelta (unknown origin) to inhibition for PI3K p120 gamma (unknown origin) using phosphatidylinositol 4,5-bisphosphate as substrate in presence of ATP incubated for 60 mins by ADP-Glo assay
[4] = molecular target: T1, Phosphatidylinositol 4,5-bisphosphate 3-kinase catalytic subunit gamma isoform; experiment: Inhibition of PI3Kgamma in human THP-1 cells assessed as reduction in Akt phosphorylation at S473 residue incubated for 60 mins measured after 120 mins by alphalisa assay; assay type: cell-based

T1 sequence (P48736 whole entry, canonical isoform): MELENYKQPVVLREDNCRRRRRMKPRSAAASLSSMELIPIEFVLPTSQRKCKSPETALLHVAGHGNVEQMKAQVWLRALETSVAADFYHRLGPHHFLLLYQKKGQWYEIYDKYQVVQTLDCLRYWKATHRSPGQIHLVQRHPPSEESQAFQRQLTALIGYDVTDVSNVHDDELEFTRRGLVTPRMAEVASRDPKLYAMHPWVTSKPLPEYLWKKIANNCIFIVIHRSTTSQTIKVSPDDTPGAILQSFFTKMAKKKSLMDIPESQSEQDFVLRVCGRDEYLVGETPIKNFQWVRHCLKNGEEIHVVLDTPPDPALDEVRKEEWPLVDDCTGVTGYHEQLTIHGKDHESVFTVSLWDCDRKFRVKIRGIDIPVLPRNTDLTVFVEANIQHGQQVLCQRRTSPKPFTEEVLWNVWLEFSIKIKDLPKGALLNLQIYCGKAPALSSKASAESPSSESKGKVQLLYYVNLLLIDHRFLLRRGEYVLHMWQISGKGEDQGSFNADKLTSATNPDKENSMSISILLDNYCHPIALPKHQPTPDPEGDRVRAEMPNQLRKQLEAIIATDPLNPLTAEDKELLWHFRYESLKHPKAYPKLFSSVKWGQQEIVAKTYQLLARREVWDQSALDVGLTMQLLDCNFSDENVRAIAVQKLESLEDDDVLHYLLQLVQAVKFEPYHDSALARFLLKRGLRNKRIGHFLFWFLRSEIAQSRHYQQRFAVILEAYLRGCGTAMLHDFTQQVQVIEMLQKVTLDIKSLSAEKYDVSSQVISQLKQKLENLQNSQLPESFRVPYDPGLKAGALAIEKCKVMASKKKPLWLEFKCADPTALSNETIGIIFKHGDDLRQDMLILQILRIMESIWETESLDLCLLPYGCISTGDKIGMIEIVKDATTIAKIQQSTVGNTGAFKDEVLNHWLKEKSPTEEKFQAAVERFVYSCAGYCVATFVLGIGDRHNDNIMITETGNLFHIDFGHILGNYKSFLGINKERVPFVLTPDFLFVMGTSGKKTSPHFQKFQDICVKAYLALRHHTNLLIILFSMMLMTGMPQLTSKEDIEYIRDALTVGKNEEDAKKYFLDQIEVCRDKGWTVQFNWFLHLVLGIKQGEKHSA

SMILES	IC50 [1]	Selectivity ratio (Homo sapiens [2])	Selectivity ratio (Homo sapiens [3])	IC50 [4]
Cc1cc(-c2cnc3[nH]cc(-c4ccccc4C(=O)O)c3c2)cc2c1C(=O)N([C@@H](C)C1CC1)C2	0.18 µM	> 59	> 59	15 µM
Cc1cc(-c2cnc3[nH]nnc3c2)cc2c1C(=O)N(C(C)C1CC1)C2 (racemic)	1.6 µM	–	–	–
Cc1cc(-c2cnc3[nH]c(=O)ccc3c2)cc2c1C(=O)N(C(C)C1CC1)C2 (racemic)	0.53 µM	–	–	–
Cc1cc(-c2cnc3[nH]ncc3c2)cc2c1C(=O)N(C(C)C1CC1)C2 (racemic)	0.09 µM	–	–	–
Cc1cc(-c2cnc3[nH]cc(C4CCNC4)c3c2)cc2c1C(=O)N([C@@H](C)C1CC1)C2 (stereo not given in full)	0.281 µM	> 36	> 36	3.8 µM
Cc1cc(-c2cnc3[nH]cc(-c4ccncc4)c3c2)cc2c1C(=O)N([C@H](C)C1CC1)C2	0.009 µM	–	–	–
Cc1cc(-c2cnc3[nH]cc(-c4ccncc4)c3c2)cc2c1C(=O)N(C(C)(C)C1CC1)C2	0.028 µM	74	100	1.1 µM
COC[C@H](C)N1Cc2cc(-c3cnc4[nH]cc(-c5ccncc5)c4c3)cc(C)c2C1=O	0.009 µM	51	216	0.6 µM
Cc1cc(-c2cnc3[nH]ccc3c2)cc2c1C(=O)N([C@@H](C)C1CC1)C2	0.05 µM	–	–	–
Cc1cc(-c2cnc3[nH]cc(-c4ccc(C#N)cc4)c3c2)cc2c1C(=O)N([C@@H](C)C1CC1)C2	0.042 µM	> 242	> 242	3.5 µM
Cc1cc(-c2cnc3[nH]cc(C(=O)O)c3c2)cc2c1C(=O)N([C@@H](C)C1CC1)C2	0.013 µM	> 775	> 775	11 µM
Cc1cc(-c2cnc3[nH]cc(-c4ccncc4)c3c2)cc2c1C(=O)N([C@@H](C)c1ccc(F)cc1)C2	0.04 µM	142	> 190	2.1 µM
Cc1cc(-c2cnc3[nH]cc(-c4ccncc4)c3c2)cc2c1C(=O)N(C1CCOCC1)C2	0.05 µM	7	18	1 µM
Cc1cc(-c2cnc3[nH]cc(-c4ccccn4)c3c2)cc2c1C(=O)N([C@@H](C)C1CC1)C2	0.033 µM	> 308	> 308	3.5 µM
Cc1cc(-c2cnc3[nH]cc(-c4ccn(C)c(=O)c4)c3c2)cc2c1C(=O)N([C@@H](C)C1CC1)C2	0.026 µM	466	128	0.2 µM
Cc1cc(-c2cnc3[nH]cc(-c4ccncc4)c3c2)cc2c1C(=O)N(CC(F)(F)F)C2	0.0253 µM	42	62	1.6 µM
Cc1cc(-c2cnc3[nH]cc(C(=O)Nc4ccncc4)c3c2)cc2c1C(=O)N([C@@H](C)C1CC1)C2	0.012 µM	> 856	> 856	1.3 µM
Cc1cc(-c2cnc3[nH]cc(-c4ccnc(C(F)(F)F)c4)c3c2)cc2c1C(=O)N([C@@H](C)C1CC1)C2	0.016 µM	> 578	> 552	4 µM
Cc1cc(-c2cnc3[nH]ncc3c2)cc2c1C(=O)N([C@@H](C)C1CC1)C2	0.035 µM	–	–	–
Cc1cc(-c2cnc3c(c2)CC(=O)N3)cc2c1C(=O)N(C(C)C1CC1)C2 (racemic)	0.6 µM	–	–	–
Cc1cc(-c2cnc3[nH]cc(-c4ccncc4)c3c2)cc2c1C(=O)N(C(C)(C)C)C2	0.026 µM	62	107	0.72 µM
Cc1cc(-c2cnc3cn[nH]c3c2)cc2c1C(=O)N(C(C)C1CC1)C2 (racemic)	0.49 µM	–	–	–
Cc1cc(-c2cnc3[nH]ncc3n2)cc2c1C(=O)N([C@@H](C)C1CC1)C2	0.08 µM	–	–	–

Compounds with a lower IC50 [1], results first:

IC50 [1]	Selectivity ratio (Homo sapiens [2])	Selectivity ratio (Homo sapiens [3])	IC50 [4]	SMILES
0.008 µM	–	–	–	Cc1cc(-c2cnc3[nH]nc(-c4ccncc4)c3c2)cc2c1C(=O)N([C@@H](C)C1CC1)C2
0.007 µM	89	112	0.4 µM	Cc1cc(-c2cnc3[nH]cc(-c4cccnc4)c3c2)cc2c1C(=O)N(C(C)C1CC1)C2 (racemic)
0.0068 µM	253	901	0.8 µM	Cc1cc(-c2cnc3[nH]cc(-c4ccncc4)c3c2)cc2c1C(=O)N(C(C1CC1)C1CC1)C2
0.006 µM	255	> 414	0.8 µM	CC[C@@H](C1CC1)N1Cc2cc(-c3cnc4[nH]cc(-c5ccncc5)c4c3)cc(C)c2C1=O
0.0058 µM	214	640	0.4 µM	Cc1cc(-c2cnc3[nH]cc(-c4ccnc(N)c4)c3c2)cc2c1C(=O)N([C@@H](C)C1CC1)C2
0.005 µM	> 1560	> 1900	0.26 µM	Cc1ccc(-c2c[nH]c3ncc(-c4cc(C)c5c(c4)CN([C@@H](C)C4CC4)C5=O)cc23)cc1C(=O)O
0.005 µM	1060	463	0.4 µM	Cc1cc(-c2cnc3[nH]cc(-c4ccc(S(N)(=O)=O)cc4)c3c2)cc2c1C(=O)N([C@@H](C)C1CC1)C2
0.0045 µM	> 2240	1030	0.32 µM	Cc1cc(-c2cnc3[nH]cc(C(=O)NC4CCOCC4)c3c2)cc2c1C(=O)N([C@@H](C)C1CC1)C2
0.0043 µM	> 1670	365	0.17 µM	COc1cc(-c2cnc3[nH]cc(-c4cnn(C)c4)c3c2)cc2c1C(=O)N([C@@H](C)C1CC1)C2
0.0042 µM	898	1380	0.3 µM	CC(C)c1cc(-c2cnc3[nH]cc(-c4cnn(C)c4)c3c2)cc2c1C(=O)N([C@@H](C)C1CC1)C2
0.004 µM	449	615	0.15 µM	C[C@@H](C1CC1)N1Cc2cc(-c3cnc4[nH]cc(-c5cnn(C)c5)c4c3)cc(NS(C)(=O)=O)c2C1=O
0.004 µM	> 4160	101	0.07 µM	CNS(=O)(=O)c1cc(-c2cnc3[nH]cc(-c4cnn(C)c4)c3c2)cc2c1C(=O)N([C@@H](C)C1CC1)C2
0.004 µM	853	49	0.17 µM	Cc1cc(-c2cnc3[nH]cc(-c4ccc(C(=O)O)c(N5CCCC5)c4)c3c2)cc2c1C(=O)N([C@@H](C)C1CC1)C2
0.0033 µM	416	183	0.6 µM	Cc1cc(-c2cnc3[nH]cc(-c4ccc(C(C)(C)O)nc4)c3c2)cc2c1C(=O)N([C@@H](C)C1CC1)C2
0.00326 µM	898	379	0.2 µM	Cc1cc(-c2cnc3[nH]cc(-c4cnn(C)c4)c3c2)cc2c1C(=O)N([C@@H](C)C1CC1)C2
0.0031 µM	546	1050	0.7 µM	Cc1cc(-c2cnc3[nH]cc(-c4ccc(C(=O)O)c(F)c4)c3c2)cc2c1C(=O)N([C@@H](C)C1CC1)C2
0.0026 µM	254	159	0.1 µM	C[C@@H](C1CC1)N1Cc2cc(-c3cnc4[nH]cc(-c5cnn(C)c5)c4c3)cc(S(=O)(=O)N(C)C)c2C1=O
0.00259 µM	711	226	0.23 µM	Cc1cc(-c2cnc3[nH]cc(-c4ccc(C(N)=O)cc4)c3c2)cc2c1C(=O)N([C@@H](C)C1CC1)C2
0.0025 µM	> 1060	> 2740	0.5 µM	CC(=O)Nc1cc(-c2cnc3[nH]cc(-c4cnn(C)c4)c3c2)cc2c1C(=O)N([C@@H](C)C1CC1)C2
0.0024 µM	455	533	0.17 µM	C[C@@H](C1CC1)N1Cc2cc(-c3cnc4[nH]cc(-c5cnn(C)c5)c4c3)cc(Cl)c2C1=O
0.0024 µM	2800	266	0.09 µM	C[C@@H](C1CC1)N1Cc2cc(-c3cnc4[nH]cc(-c5cnn(C)c5)c4c3)cc(C(F)(F)F)c2C1=O
0.0021 µM	224	344	0.059 µM	Cc1cc(-c2cnc3[nH]cc(-c4ccc(C(=O)O)c(C(C)C)c4)c3c2)cc2c1C(=O)N([C@@H](C)C1CC1)C2
0.00164 µM	380	591	0.35 µM	Cc1cc(-c2cnc3[nH]cc(-c4ccc(C(=O)O)c(C(F)(F)F)c4)c3c2)cc2c1C(=O)N([C@@H](C)C1CC1)C2
0.0016 µM	585	494	0.04 µM	Cc1cc(-c2cnc3[nH]cc(-c4ccc(C(=O)O)c(C5CC5)c4)c3c2)cc2c1C(=O)N([C@@H](C)C1CC1)C2
0.0015 µM	369	494	0.17 µM	COc1cc(-c2c[nH]c3ncc(-c4cc(C)c5c(c4)CN([C@@H](C)C4CC4)C5=O)cc23)ccc1C(=O)O
0.0015 µM	1020	289	0.05 µM	C[C@@H](C1CC1)N1Cc2cc(-c3cnc4[nH]cc(-c5cnn(C)c5)c4c3)cc(S(C)(=O)=O)c2C1=O
0.0012 µM	691	367	0.07 µM	Cc1cc(-c2cnc3[nH]cc(-c4cc(C)c(C(=O)O)c(C5CC5)c4)c3c2)cc2c1C(=O)N([C@@H](C)C1CC1)C2
